# According to patent publication US20240280564A1, “ASSAY FOR EXTRINSIC INHIBITION” (The J. David Gladstone Institutes, a testamentary trust …, priority 2021, published 2024):
# Key:
# [1] = cited from earlier work
# [2] = test system: BMP signal transducers SMAD1/5 (phosphorylation); test: Immunoblot of phospho-SMAD1/5 in fibrinogen-treated primary rat OPCs; format: cell-based
# Description: (§1) Cells or tissue were lysed in RIPA lysis buffer (Thermo Fisher Scientific) supplemented with protease/phosphatase inhibitor cocktails (Calbiochem) and lysates were cleared by centrifuging at 13,000×g for 15 minutes at 4° C. Equal amounts of protein were loaded in 4%-12% bis-tris gels (Thermo Fisher Scientific) and analyzed by western blotting. Bands were visualized with HRP-conjugated secondary antibodies (Cell Signaling Technology). Densitometry was performed using ImageJ Software (NIH) with values for each band normalized to GAPDH loading controls from the same membrane. Primary antibodies were: Id2 (1:1000, rabbit monoclonal, #M213, CalBioreagents); phospho-Smad1/5 (1:1000, rabbit monoclonal, #9516, Cell Signaling Technology); GAPDH (1:1000, rabbit monoclonal, #2118, Cell Signaling Technology)
# BMP target protein ID2 = test: Immunoblot of ID2 protein in fibrinogen-treated primary rat OPCs; format: cell-based
# Description: as §1
# primary rat OPCs = test: OPC-X-screen: high-content imaging of MBP+ OLs and GFAP+ astrocytes in fibrinogen-treated OPCs; format: cell-based; conditions: for Cell-fate switch of OPCs to GFAP+ cells by fibrinogen: fibrinogen-treated primary rat OPCs; for OPC differentiation to mature MBP+ OLs in the presence of fibrinogen: myelin-promoting compound screen, fibrinogen 1.5 mg/ml, benztropine, clemastine, quetiapine, miconazole, (±)U-50488, DMH1 1 μM, clobetasol 5 μM, XAV-939 0.1 μM
# NOD-MOG35-55 EAE mice = test: Progressive NOD-MOG35-55 EAE, therapeutic treatment; format: in vivo, mouse
# MOG35-55 EAE mice = test: Chronic MOG35-55 EAE in NG2-CreERTM:RosatdTomato/+ mice, therapeutic treatment; format: in vivo, mouse
# [3] = fibrinogen 2.5 mg/ml, three-fold serial dilutions 5 μM to 2 nM, 3 days
# [4] = fibrinogen alone in the OPC-X assay
compound,measurement,setting,value
CC(C)Oc1ccc(-c2cnc3c(-c4ccnc5ccccc45)cnn3c2)cc1 [DMH1],Water solubility,[1],not water-soluble
same,Fibrinogen-induced phosphorylation of SMAD1/5,[2],blocked
same,Fibrinogen-induced expression of ID2,BMP target protein ID2,blocked
same,Cell-fate switch of OPCs to GFAP+ cells by fibrinogen,primary rat OPCs; 3 days,abolished
same,OPC differentiation to mature MBP+ OLs in the presence of fibrinogen,primary rat OPCs; 3 days,restored OPC differentiation to mature OLs to control levels
c1cc(-c2cnn3cc(-c4ccc(N5CCNCC5)cc4)cnc23)c2cccnc2c1 [LDN-212854],Water solubility,[1],water-soluble
same,Group mean of maximum clinical scores,"NOD-MOG35-55 EAE mice; 30 days treatment, five-point scale, saline 2.36",1.75
same,Clinical scores,"NOD-MOG35-55 EAE mice; treated for 30 days, vs saline",significantly improved
same,Demyelination in spinal cord,NOD-MOG35-55 EAE mice; vs saline,reduced
same,Fibrinogen deposition in spinal cord,NOD-MOG35-55 EAE mice; vs saline,reduced
same,Clinical scores,"MOG35-55 EAE mice; 6 mg/kg twice daily for 14 days starting at peak disease, vs saline",significantly improved
same,Formation of OPC-derived GFAP+ astrocytes,"MOG35-55 EAE mice; 14 day treatment, fate mapping",abolished
same,Proportion of NG2tdTomato+ OPCs differentiated into GST-pi+ mature OLs,"MOG35-55 EAE mice; 14 day treatment, fate mapping, vs controls",increased
same,ID2 expression in NG2 cells in the EAE white matter,"MOG35-55 EAE mice; 14 day treatment, vs saline",decreased
same,"Myelin damage (myelin circularity, in vivo 2P imaging)","MOG35-55 EAE mice; chronic, vs saline",markedly reduced
same,Perivascular NG2 clusters (in vivo 2P imaging),"MOG35-55 EAE mice; chronic, vs saline",markedly reduced
same,Demyelination in spinal cord,MOG35-55 EAE mice; vs saline,reduced
same,Fibrinogen deposition in spinal cord,MOG35-55 EAE mice; vs saline,reduced
same,"Formation of GFAP+ astrocytes from fibrinogen-treated OPCs, dose response",primary rat OPCs; [3],blocked
same,"Mature OL (MBP+) differentiation of fibrinogen-treated OPCs, dose response",primary rat OPCs; [3],restored mature OL differentiation
Oc1nc(-c2ccc(C(F)(F)F)cc2)nc2c1CSCC2 [XAV-939],OPC differentiation to mature MBP+ OLs in the presence of fibrinogen,primary rat OPCs; 3 days,did not overcome extrinsic inhibition of OPC differentiation by fibrinogen
CN1[C@@H]2CC[C@H]1C[C@@H](OC(c1ccccc1)c1ccccc1)C2 [benztropine],OPC differentiation to mature MBP+ OLs in the presence of fibrinogen,primary rat OPCs; 3 days,did not overcome extrinsic inhibition of OPC differentiation by fibrinogen
CN1CCC[C@@H]1CCO[C@](C)(c1ccccc1)c1ccc(Cl)cc1 [clemastine],Fibrinogen-induced phosphorylation of SMAD1/5,[2],did not block
same,Fibrinogen-induced expression of ID2,BMP target protein ID2,did not block
same,OPC differentiation to mature OLs in the presence of fibrinogen (clemastine dose-response),"primary rat OPCs; fibrinogen 2.5 mg/ml, differentiation media without T3 or growth factors, 3 days",did not enhance OPC differentiation to mature OLs in the presence of fibrinogen
same,Cell-fate switch of OPCs to GFAP+ cells by fibrinogen,primary rat OPCs; 3 days,"did not inhibit SMAD1/5 phosphorylation, a key pathway downstream of BMP receptor activation, or rescue OPC cell fate switch to astrocytes"
same,OPC differentiation to mature MBP+ OLs in the presence of fibrinogen,primary rat OPCs; 3 days,did not overcome extrinsic inhibition of OPC differentiation by fibrinogen
same,Number of MBP+ cells in control conditions,"primary rat OPCs; no fibrinogen, differentiation media without T3 or growth factors, 3 days",increased
C[C@H]1C[C@H]2[C@@H]3CCC4=CC(=O)C=C[C@]4(C)[C@@]3(F)[C@@H](O)C[C@]2(C)[C@@]1(O)C(=O)CCl [clobetasol],OPC differentiation to mature MBP+ OLs in the presence of fibrinogen,primary rat OPCs; 3 days,did not overcome extrinsic inhibition of OPC differentiation by fibrinogen
Clc1ccc(COC(Cn2ccnc2)c2ccc(Cl)cc2Cl)c(Cl)c1 (stereo not drawn) [miconazole],OPC differentiation to mature MBP+ OLs in the presence of fibrinogen,primary rat OPCs; 3 days,did not overcome extrinsic inhibition of OPC differentiation by fibrinogen
OCCOCCN1CCN(C2=Nc3ccccc3Sc3ccccc32)CC1 [quetiapine],OPC differentiation to mature MBP+ OLs in the presence of fibrinogen,primary rat OPCs; 3 days,did not overcome extrinsic inhibition of OPC differentiation by fibrinogen
fibrinogen,Decrease of MBP+ mature OLs as compared to controls,primary rat OPCs; [4],~60%
same,Increase of GFAP+ astrocyte-like cells as compared to controls,primary rat OPCs; [4],~60%
